Test results: patent US9127016B2, “Small molecule inhibitors of Dusp6 and uses therefor” (University of Pittsburgh—Of the Commonwealth System of …, priority 2009, dated 2015)

Target: T1, Dusp6 (Homo sapiens, UniProt Q16828)
T1 sequence (Q16828 1-381): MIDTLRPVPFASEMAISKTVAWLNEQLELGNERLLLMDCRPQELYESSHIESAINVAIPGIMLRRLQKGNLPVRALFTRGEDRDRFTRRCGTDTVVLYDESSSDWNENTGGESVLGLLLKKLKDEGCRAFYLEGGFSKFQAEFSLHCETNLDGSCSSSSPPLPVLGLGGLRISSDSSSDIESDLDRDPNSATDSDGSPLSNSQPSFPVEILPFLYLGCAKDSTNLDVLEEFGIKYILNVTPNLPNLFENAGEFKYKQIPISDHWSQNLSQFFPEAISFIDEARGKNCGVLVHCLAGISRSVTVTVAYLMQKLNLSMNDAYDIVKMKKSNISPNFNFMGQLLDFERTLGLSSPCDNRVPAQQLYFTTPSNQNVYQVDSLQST
Test: Chemical complementation assay in HeLa cells, pERK restoration, Dusp6-Myc
Type: cell-based
Set-up: expressed in transfected cells; host or cells: HeLa cells, pcDNA3.1, FuGene 6
Conditions: TPA stimulated
Description: These experiments were carried out essentially as described26. HeLa cells were obtained from ATCC (Manassas, Va.) and maintained in a humidified atmosphere of 5% CO2 at 37° C., Dulbecco's […] (DMEM) supplemented with 10% fetal bovine serum (FBS, HyClone, Logan, Utah), and 1% penicillin-streptomycin (Life Technologies, Inc., Rockville, Md.). c-Myc-Dusp6 and c-Myc-Dusp1 (also known as CL100) (kindly provided by Dr. Stephen Keyse, University of Dundee) were subcloned into pcDNA3.1 for ectopic expression in mammalian cells50. […] Plates were analyzed by three-channel multiparametric analysis for p-ERK and c-Myc-DUSP intensities in an area defined by nuclear staining using the Compartmental Analysis Bioapplication on an ArrayScan II high-content reader (Cellomics, Pittsburgh, Pa.). Restoration of ERK phosphorylation by BCI in Dusp6 overexpressing cells was quantified by Kolmogorov-Smirnov (KS) statistics as described previously using DUSP-transfected and vehicle treated control wells26. One thousand individual cells were gated for Dusp-Myc expression based on c-Myc immunostaining and analyzed for ERK phosphorylation. […] To quantify restoration of Erk phosphorylation in the Dusp expressing cells after compound treatment, KS values for each condition were normalized to the average KS value from four wells transfected with Dusp1 or Dusp6 and treated with vehicle. […]

Row | Compound | IC50 (15 min compound, read-out: IC50, Dusp6 inhibition (pERK restoration)) | block of Dusp6 activity in chemical complementation assay
1 | O=C1/C(=C/c2ccccc2)C(NC2CCCCC2)c2ccccc21 (centres unmarked) [Compound 3, (E)-2-benzylidene-3-(cyclohexylamino)-2,3-dihydro-1H-inden-1-one] | 16 µM | 
2 | O=C1CC(NC2CCCCC2)c2ccccc21 (centres unmarked) [Compound 17, 3-(Cyclohexylamino)-2,3-dihydro-1H-inden-1-one] |  | did not block
